Some test systems named below: SK-MEL-5 melanoma; NCI-H522 lung; HCT-15 colon; SF-295 CNS; OVCAR-8 ovarian; LOX IMVI melanoma; HL-60(TB) leukemia; OVCAR-4 ovarian; MALME-3M melanoma; UACC-257 melanoma.
Common to all, as to experiment: NCI-60 cell line screen, 48 h

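Assay format: 96-well plates, 48-hour exposure. Here, GI50 denotes the concentration required for 50% inhibition of growth. The concentration for full growth arrest is given as TGI.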

Our source for the GI50 and TGI values is PubChem BioAssay (NCI).

Consider `CCOC(=O)NC(=S)N(CC(=O)c1cc(OC)c(OC)c(OC)c1)c1ccc(Cl)cc1`, for which the GI50 in the assay with SK-MEL-5 melanoma was 43 µM; in the assay with NCI-H522 lung, 27.9 µM; in the assay with HCT-15 colon, 62.6 µM; with SF-295 CNS it was 76.7 µM; in the assay on OVCAR-8 ovarian it was over 100 µM; in the assay with LOX IMVI melanoma it was 23.7 µM. Also, the GI50 with HL-60(TB) leukemia was 65.7 µM; with OVCAR-4 ovarian, 60.6 µM; in the assay with MALME-3M melanoma it was over 100 µM; in the assay on UACC-257 melanoma, 25.1 µM. Besides, the TGI in the assay on SK-MEL-5 melanoma, with NCI-H522 lung, in the assay with HCT-15 colon, in the assay with SF-295 CNS, in the assay on OVCAR-8 ovarian and with LOX IMVI melanoma was over 100 µM throughout. The TGI in the assay on HL-60(TB) leukemia, in the assay on OVCAR-4 ovarian, with MALME-3M melanoma and in the assay with UACC-257 melanoma was over 100 µM in each case.
As to `CC(=O)C(=Cc1cn(C)c(=O)n(C)c1=O)C(C)=O`, the TGI came out at 176 µM in the assay on SK-MEL-5 melanoma; 67.1 µM in the assay on NCI-H522 lung; 218 µM with HCT-15 colon; 254 µM with SF-295 CNS; 324 µM in the assay on OVCAR-8 ovarian; 171 µM with LOX IMVI melanoma. Besides, the TGI worked out at 271 µM in the assay on HL-60(TB) leukemia, 273 µM in the assay with OVCAR-4 ovarian, 201 µM in the assay on MALME-3M melanoma and 177 µM in the assay on UACC-257 melanoma.
Take `C[C@]12CC[C@H]3[C@@H](CC=C4C[C@@H](N5CCCC5)CC[C@@]43C)[C@@H]1C[C@H](N1CCCCC1)[C@@H]2O`: the TGI in the assay with SK-MEL-5 melanoma, in the assay on NCI-H522 lung, in the assay with HCT-15 colon, in the assay on SF-295 CNS, in the assay with OVCAR-8 ovarian and in the assay on LOX IMVI melanoma was over 100 µM each time. Also, the TGI is over 100 µM in the assay on HL-60(TB) leukemia, over 100 µM in the assay with OVCAR-4 ovarian, over 100 µM in the assay with MALME-3M melanoma and 83.8 µM in the assay on UACC-257 melanoma.
For `COC1CC(C)(NC(=O)C(F)(F)F)C2OC(c3ccccc3)OCC2O1` (stereo not given), the TGI with SK-MEL-5 melanoma, in the assay with NCI-H522 lung, in the assay with HCT-15 colon, with SF-295 CNS, in the assay with OVCAR-8 ovarian and with LOX IMVI melanoma was over 100 µM in each case. For the same compound, the TGI with HL-60(TB) leukemia, in the assay with OVCAR-4 ovarian, in the assay on MALME-3M melanoma and in the assay with UACC-257 melanoma was over 100 µM throughout.
Turning to `Cc1ccccc1NC(=O)O/N=C(\Cl)C(C)C`, the TGI in the assay on SK-MEL-5 melanoma was 25.9 µM; in the assay on NCI-H522 lung it was 3.18 µM; in the assay on HCT-15 colon, 4.17 µM; in the assay on SF-295 CNS, 33.7 µM; in the assay with OVCAR-8 ovarian, 33.8 µM; in the assay with LOX IMVI melanoma, 3.11 µM. The TGI in the assay on HL-60(TB) leukemia is over 22 µM; in the assay on OVCAR-4 ovarian, 23.2 µM; in the assay on MALME-3M melanoma, 5.73 µM; in the assay on UACC-257 melanoma, 28.7 µM.
Take `COC(=N)C1(C#N)NC(c2ccsc2)C(C#N)(C#N)NC1c1ccsc1` (stereo not given): the TGI in the assay on SK-MEL-5 melanoma, in the assay on NCI-H522 lung, with HCT-15 colon, with SF-295 CNS, with OVCAR-8 ovarian and in the assay with LOX IMVI melanoma was over 100 µM throughout. The TGI in the assay with HL-60(TB) leukemia, in the assay with OVCAR-4 ovarian, with MALME-3M melanoma and in the assay with UACC-257 melanoma was over 100 µM each time.
As for `COc1cc(CCNC2=CC(=O)c3nc[nH]c3C2=O)ccc1O`, the TGI is 27.6 µM in the assay on SK-MEL-5 melanoma; 62.3 µM in the assay with NCI-H522 lung; over 100 µM in the assay with HCT-15 colon; 96.4 µM with SF-295 CNS; 47.6 µM in the assay with OVCAR-8 ovarian; 45.7 µM with LOX IMVI melanoma. Also, the TGI in the assay with HL-60(TB) leukemia was found to be 60.8 µM; with OVCAR-4 ovarian, 29 µM; with MALME-3M melanoma, 26.1 µM; with UACC-257 melanoma it was 34.8 µM.
As to `O=c1[nH]c(=O)n(COC(CO)CO)cc1-c1ccccc1`, the TGI with SK-MEL-5 melanoma, with NCI-H522 lung, with HCT-15 colon, with SF-295 CNS, in the assay with OVCAR-8 ovarian and in the assay on LOX IMVI melanoma was over 100 µM throughout. The TGI with HL-60(TB) leukemia, in the assay with OVCAR-4 ovarian, with MALME-3M melanoma and in the assay on UACC-257 melanoma was over 100 µM each time.
On to `Nc1[nH]c(=O)nc2c1ncn2C1OC(CO)C(O)C1O` (stereo not given), for which the TGI was over 100 µM in the assay with SK-MEL-5 melanoma; over 100 µM in the assay with NCI-H522 lung; 95.4 µM in the assay with HCT-15 colon; over 100 µM with SF-295 CNS; 74.4 µM in the assay on OVCAR-8 ovarian; over 100 µM with LOX IMVI melanoma. Besides, the TGI was 54.9 µM in the assay with HL-60(TB) leukemia, over 100 µM with OVCAR-4 ovarian, over 100 µM in the assay on MALME-3M melanoma and over 100 µM in the assay with UACC-257 melanoma.
Take `CCN1CC2(C)CCC(OC)C34C5CC6CCC(O)(C5C(=O)O6)C(C(O)C23)C14` (stereo not given): the TGI in the assay with SK-MEL-5 melanoma, in the assay on NCI-H522 lung, in the assay on HCT-15 colon, with SF-295 CNS, with OVCAR-8 ovarian and in the assay with LOX IMVI melanoma was over 100 µM throughout. For the same compound, the TGI in the assay with HL-60(TB) leukemia, in the assay on OVCAR-4 ovarian, in the assay with MALME-3M melanoma and in the assay on UACC-257 melanoma was over 100 µM each time.
Take `C[n+]1cccc2ccc3cccnc3c21`: the TGI is 42 µM in the assay on SK-MEL-5 melanoma; 35.1 µM with NCI-H522 lung; over 100 µM in the assay on HCT-15 colon; over 100 µM in the assay on SF-295 CNS; over 100 µM in the assay with OVCAR-8 ovarian; over 100 µM in the assay with LOX IMVI melanoma. Further, the TGI in the assay on HL-60(TB) leukemia is over 100 µM; in the assay on OVCAR-4 ovarian it was over 100 µM; in the assay on MALME-3M melanoma it was 49.9 µM; in the assay with UACC-257 melanoma, over 100 µM.
For `CN1CCN(C(=O)c2cn(Cc3cncn3Cc3ccc4c(c3)OCO4)cc2-c2cccc3ccccc23)CC1`, the TGI in the assay with SK-MEL-5 melanoma was 37.4 µM; in the assay with NCI-H522 lung it was 84.1 µM; with HCT-15 colon, over 100 µM; in the assay on SF-295 CNS, 70.6 µM; in the assay with OVCAR-8 ovarian, over 100 µM; with LOX IMVI melanoma it was 47.8 µM. The TGI in the assay with HL-60(TB) leukemia is 23.2 µM; in the assay with OVCAR-4 ovarian it was over 100 µM; in the assay on MALME-3M melanoma, 26.6 µM; with UACC-257 melanoma it was 42.7 µM.
`COc1cc2c(/C=C3/C(=O)Nc4ccccc43)c(Cl)n(Cc3ccc(Cl)cc3)c2cc1C`: the TGI in the assay with SK-MEL-5 melanoma came out at 1.62 µM; with NCI-H522 lung, 2.06 µM; with HCT-15 colon, 0.969 µM; in the assay with SF-295 CNS, 3.06 µM; with OVCAR-8 ovarian it was 0.989 µM; with LOX IMVI melanoma, 2.54 µM. In addition, the TGI was determined as 2.33 µM in the assay on HL-60(TB) leukemia, 18.6 µM in the assay with OVCAR-4 ovarian, 14.5 µM in the assay with MALME-3M melanoma and 8.43 µM with UACC-257 melanoma.
As for `CC1=NN(C(=O)CC(=O)Nc2cccc(C)c2)C(=O)C1N=Nc1ccc(S(=O)(=O)CCOS(=O)(=O)O)cc1` (stereo not given), the TGI is 2.88 µM in the assay with SK-MEL-5 melanoma; 0.835 µM in the assay on NCI-H522 lung; 4.83 µM in the assay with HCT-15 colon; 11.3 µM with SF-295 CNS; over 22.4 µM with OVCAR-8 ovarian; 5.47 µM with LOX IMVI melanoma. In addition, the TGI was over 100 µM in the assay on HL-60(TB) leukemia, 27 µM in the assay on OVCAR-4 ovarian, 13.6 µM in the assay with MALME-3M melanoma and 23.1 µM in the assay on UACC-257 melanoma.
As to `CSC(SC)=C(C(=O)c1ccc(Cl)cc1)n1c(=O)sc2cc(Br)ccc21`, the TGI in the assay with SK-MEL-5 melanoma, with NCI-H522 lung, with HCT-15 colon, in the assay on SF-295 CNS, in the assay with OVCAR-8 ovarian and in the assay with LOX IMVI melanoma was over 100 µM each time. For the same compound, the TGI in the assay on HL-60(TB) leukemia, with OVCAR-4 ovarian, with MALME-3M melanoma and in the assay on UACC-257 melanoma was over 100 µM throughout.
As for `O=CCCCCCOCc1ccccc1`, the TGI is over 54.4 µM in the assay on SK-MEL-5 melanoma; over 100 µM in the assay on NCI-H522 lung; over 100 µM with HCT-15 colon; over 60.4 µM with SF-295 CNS; over 100 µM in the assay with OVCAR-8 ovarian; 34.9 µM in the assay with LOX IMVI melanoma. Also, the TGI with HL-60(TB) leukemia is over 43.7 µM; in the assay on OVCAR-4 ovarian, over 100 µM; with MALME-3M melanoma, over 100 µM; in the assay on UACC-257 melanoma, over 100 µM.
As for `CC(C)CCCC(C)[C@H]1CCC(C2C[C@@H](O)[C@@H]3CC(O)[C@@H](O)C[C@]3(CO)C2=O)[C@]1(C)CCO` (stereo not given in full), the TGI with SK-MEL-5 melanoma was 18.8 µM; in the assay on NCI-H522 lung, 73.8 µM; in the assay with HCT-15 colon, over 66.8 µM; with SF-295 CNS it was 40 µM; in the assay on OVCAR-8 ovarian, over 76.1 µM; with LOX IMVI melanoma it was 39.3 µM. The TGI in the assay with HL-60(TB) leukemia is 38.6 µM; in the assay with OVCAR-4 ovarian, over 83.8 µM; in the assay on MALME-3M melanoma, 44.8 µM; in the assay with UACC-257 melanoma, 46.5 µM.
With `CC(=O)NC1C(OCc2ccccc2)OC(CO)C(O)C1OC(C)C(=O)N[C@@H](C)C(=O)N[C@H](CCC(=O)NCCNCCNc1c2ccccc2nc2cccc([N+](=O)[O-])c12)C(N)=O` (stereo not given in full), the TGI in the assay on SK-MEL-5 melanoma came to 0.0635 µM; in the assay on NCI-H522 lung it was 0.0665 µM; in the assay with HCT-15 colon it was 1.63 µM; with SF-295 CNS, 1.79 µM; in the assay on OVCAR-8 ovarian, 0.457 µM; in the assay on LOX IMVI melanoma, 0.534 µM. Further, the TGI was over 80.5 µM in the assay on HL-60(TB) leukemia, 0.0817 µM with OVCAR-4 ovarian, 0.221 µM in the assay with MALME-3M melanoma and 0.753 µM with UACC-257 melanoma.
For `Cn1/c(=N\N=C2\C=C3CCCCC3(C)CC2)sc2ccccc21` (stereo not given), the TGI in the assay with SK-MEL-5 melanoma, in the assay with NCI-H522 lung, with HCT-15 colon, in the assay with SF-295 CNS, with OVCAR-8 ovarian and with LOX IMVI melanoma was over 100 µM in each case. The TGI in the assay with HL-60(TB) leukemia, with OVCAR-4 ovarian, in the assay on MALME-3M melanoma and in the assay with UACC-257 melanoma was over 100 µM each time.
